From patent US10829496B2, “Thienopyridines and benzothiophenes useful as IRAK4 inhibitors” (BRISTOL-MYERS SQUIBB COMPANY, priority 2017, dated 2020)

What was measured:
IRAK4 = IRAK4 (Homo sapiens (Human), UniProt Q9NWZ3); experiment: IRAK4 Inhibition Assay; type: biochemical; conditions: ATP 500 μM; IRAK4 0.6 nM; 60 min at room temperature
Description: The assays were performed in U-bottom 384-well plates. The final assay volume was 30 μL prepared from 15 μL additions of enzyme and substrates (fluoresceinated peptide and ATP) and test compounds in assay buffer (20 mM HEPES pH 7.2, 10 mM MgCl2, 0.015% Brij 35 and 4 mM DTT). The reaction was initiated by the combination of IRAK4 with substrates and test compounds. The reaction mixture was incubated at room temperature for 60 min. and terminated by adding 45 μL of 35 mM EDTA to each sample. The reaction mixture was analyzed on the Caliper LABCHIP® 3000 (Caliper, Hopkinton, Mass.) by electrophoretic separation of the fluorescent substrate and phosphorylated product. Inhibition data were calculated by comparison to no enzyme control reactions for 100% inhibition and vehicle-only reactions for 0% inhibition. The final concentrations of reagents in the assays are ATP, 500 μM; FL-IPTSPITTTYFFFKKK peptide 1.5 μM; IRAK4, 0.6 nM; and DMSO, 1.6%.

[1] = tested on: IL-6 levels in human whole blood stimulated with a TLR2 agonist; experiment: IRAK4 Whole Blood Assay (TLR2 agonist lipoteichoic acid-stimulated IL-6); type: cell-based; conditions: 10 μg/mL lipoteichoic acid, 5 hours, IL-6 readout
Description: Human whole blood containing the anti-coagulant ACD-A was plated in 384-well plate (25 μL/well) and incubated with compounds for 60 minutes at 37° C. in a 5% CO2 incubator. The blood was stimulated with a TLR2 agonist, 10 μg/mL final concentration of lipoteichoic acid (Invivogen, San Diego, Calif.) in 25 μL RPMI (Gibco) for 5 hours in a 5% CO2 incubator. At the end of the incubation, plates were centrifuged at 2300 rpm for 5 minutes. Supernatants were harvested and analyzed for IL-6 levels by Flow Cytometry beads assay (BD Biosciences, San Jose, Calif.).

Chain of IRAK4 (Q9NWZ3 whole entry): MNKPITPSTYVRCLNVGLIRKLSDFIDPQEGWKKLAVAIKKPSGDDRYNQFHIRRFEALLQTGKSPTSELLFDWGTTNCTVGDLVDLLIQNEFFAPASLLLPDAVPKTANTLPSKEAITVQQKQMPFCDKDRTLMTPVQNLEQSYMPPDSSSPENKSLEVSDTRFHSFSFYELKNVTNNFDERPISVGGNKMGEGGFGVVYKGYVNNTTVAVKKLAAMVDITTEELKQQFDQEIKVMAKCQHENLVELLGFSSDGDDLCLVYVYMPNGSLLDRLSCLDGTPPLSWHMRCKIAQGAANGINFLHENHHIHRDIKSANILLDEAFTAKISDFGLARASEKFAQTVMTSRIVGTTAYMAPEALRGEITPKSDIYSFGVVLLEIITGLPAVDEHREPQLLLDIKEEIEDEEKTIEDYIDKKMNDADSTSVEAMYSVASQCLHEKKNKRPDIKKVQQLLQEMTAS

“3-(46S,7R)-7-ethyl-4-oxo-5-azaspiro[2.4]heptan-6-yl)methoxy)-5-methoxythieno[3,2-b]pyridine-6-carboxamide [Example 9]” was tested, and the IC50 (IRAK4) was 130 nM.
Compound `COc1nc2c(OCC3COCC(=O)N3)csc2cc1C(N)=O` (racemic) [Example 7, 5-methoxy-3-((5-oxomorpholin-3-yl)methoxy)thieno[3,2-b]pyridine-6-carboxamide] has an IC50 (IRAK4) of 615 nM.
`COc1nc2c(OC[C@@H]3CC(C)C(=O)N3)csc2cc1C(N)=O` (single isomer, unassigned) [Example 13] showed an IC50 (IRAK4) of 36.2 nM.
In the case of `COc1nc2c(OC[C@@H]3CC(C)C(=O)N3)csc2cc1C(N)=O` (single isomer, unassigned) [Example 14], the IC50 (IRAK4) is reported as 459 nM.
With `CCC1C[C@@H](COc2csc3cc(C(N)=O)c(OC)nc23)NC1=O` (single isomer, unassigned) [Example 15] the IC50 (IRAK4) was 63.4 nM.
With `CCC1C[C@@H](COc2csc3cc(C(N)=O)c(OC)nc23)NC1=O` (single isomer, unassigned) [Example 16] the IC50 (IRAK4) was 98.1 nM.
For `COc1cc2c(OC[C@@H]3CCC(=O)N3)csc2nc1C(N)=O` [Example 3, (S)-5-Methoxy-3-((5-oxopyrrolidin-2-yl)methoxy)thieno[2,3-b]pyridine-6-carboxamide], the IC50 (IRAK4) was 558 nM.
For `COc1nc2c(OC[C@@H]3CCC(=O)N3)csc2cc1C(N)=O` [Example 5, (S)-5-methoxy-3-((5-oxopyrrolidin-2-yl)methoxy)thieno[3,2-b]pyridine-6-carboxamide], the IC50 (IRAK4) was 20.3 nM and the EC50 [1] was 2010 nM.
For `COc1nc2c(OC[C@@H]3C[C@@H](F)C(=O)N3)csc2cc1C(N)=O` [Example 11, 3-(((2S,4R)-4-fluoro-5-oxopyrrolidin-2-yl)methoxy)-5-methoxythieno[3,2-b]pyridine-6-carboxamide], the IC50 (IRAK4) was 4 nM and the EC50 [1] was 473 nM.
With `COc1nc2c(OC[C@H]3NC(=O)C[C@H]3C(F)F)csc2cc1C(N)=O` [Example 12, 3-(((2S,3R)-3-(difluoromethyl)-5-oxopyrrolidin-2-yl)methoxy)-5-methoxythieno[3,2-b]pyridine-6-carboxamide] the IC50 (IRAK4) was 2.5 nM and the EC50 [1] was 261 nM.
`COc1nc2c(OC[C@H]3NC(=O)C[C@H]3C)csc2cc1C(N)=O` [Example 17, 5-methoxy-3-(((2S,3R)-3-methyl-5-oxopyrrolidin-2-yl)methoxy)thieno[3,2-b]pyridine-6-carboxamide] was tested, and the IC50 (IRAK4) was 6 nM and the EC50 [1] was 893 nM.
Work on `COc1nc2c(OC[C@H]3NC(=O)[C@H](F)[C@H]3C3CC3)csc2cc1C(N)=O` [Example 18, 3-(((2S,3S,4R)-3-cyclopropyl-4-fluoro-5-oxopyrrolidin-2-yl)methoxy)-5-methoxythieno[3,2-b]pyridine-6-carboxamide] yielded an IC50 (IRAK4) of 2.8 nM and an EC50 [1] of 962 nM.
With `CC[C@@H]1CC(=O)N[C@@H]1COc1csc2cc(C(N)=O)c(OC3CC3)nc12` [Example 20, 5-cyclopropoxy-3-(((2S,3R)-3-ethyl-5-oxopyrrolidin-2-yl)methoxy)thieno[3,2-b]pyridine-6-carboxamide] the IC50 (IRAK4) was 19.1 nM and the EC50 [1] was 473 nM.
In the case of `CC[C@@H]1[C@H](F)C(=O)N[C@@H]1COc1c(C)sc2cc(C(N)=O)c(OC)nc12` [Example 22, 3-(((2S,3S,4S)-3-ethyl-4-fluoro-5-oxopyrrolidin-2-yl)methoxy)-5-methoxy-2-methylthieno[3,2-b]pyridine-6-carboxamide], the IC50 (IRAK4) is reported as 33.6 nM.
Compound `CC[C@@H]1[C@H](F)C(=O)N[C@@H]1COc1csc2cc(C(N)=O)c(OC3CC3)nc12` [Example 24, 5-cyclopropoxy-3-(((2S,3S,4S)-3-ethyl-4-fluoro-5-oxopyrrolidin-2-yl)methoxy)thieno[3,2-b]pyridine-6-carboxamide] has an IC50 (IRAK4) of 20.2 nM and an EC50 [1] greater than 10000 nM.
`COc1nc2c(OC[C@@H]3CCC(=O)N3)c(C)sc2cc1C(N)=O` [Example 25, (S)-5-methoxy-2-methyl-3-((5-oxopyrrolidin-2-yl)methoxy)thieno[3,2-b]pyridine-6-carboxamide] showed an IC50 (IRAK4) of 128 nM.
Work on `CC[C@@H]1CC(=O)N[C@@H]1COc1csc2cc(C(N)=O)c(OC)cc12` [Example 29] yielded an IC50 (IRAK4) of 0.9 nM and an EC50 [1] of 363 nM.
